Test results published in PMC7093416, “Selective USP7 inhibition elicits cancer cell killing through a p53-dependent mechanism” (Scientific Reports, 2020).

System: panel of 484 cancer cell lines
Assay: PRISM cancer cell line profiling, 5 days
Type: cell-based
Set-up: AUC: unit not given beside the values
Procedure: Cancer cell line profiling was performed using the Broad’s PRISM platform. Cell treatment and data analysis were performed as described in Yu et al[42]. Raw Luminex signal was converted to AUC values for each cell line as described. The resulting AUC profile for each compound was modeled against DepMap using the limma package in R[71]. Because hotspot mutation analysis was performed against DepMap, TP53 annotations in Fig. 6c,d are directly from DepMap.

## CN1CCN(CCC(=O)Nc2ccc3c(=O)n(CC4(O)CCN(C(=O)[C@@H](CCCNC(=O)c5ccc6c(Cl)c7c(nc6c5)CCCC7)Cc5ccccc5)CC4)cnc3c2)CC1 [XL177A]
8MGBA_CENTRAL_NERVOUS_SYSTEM
  AUC: 1.174
22RV1_PROSTATE
  AUC: 0.9618
42MGBA_CENTRAL_NERVOUS_SYSTEM
  AUC: 1
253JBV_URINARY_TRACT
  AUC: 0.9502
253J_URINARY_TRACT
  AUC: 1.095
639V_URINARY_TRACT
  AUC: 0.832
647V_URINARY_TRACT
  AUC: 1.06
769P_KIDNEY
  AUC: 1.126
786O_KIDNEY
  AUC: 1.266
5637_URINARY_TRACT
  AUC: 1.038
8305C_THYROID
  AUC: 1.048
8505C_THYROID
  AUC: 0.9221
2313287_STOMACH
  AUC: 1.154
A101D_SKIN
  AUC: 1.013
A172_CENTRAL_NERVOUS_SYSTEM
  AUC: 0.8471
A204_SOFT_TISSUE
  AUC: 0.8422
A375_SKIN
  AUC: 1.23
A549_LUNG
  AUC: 0.8217
A673_BONE
  AUC: 1.349
A704_KIDNEY
  AUC: 1.109
A2058_SKIN
  AUC: 0.9507
A2780_OVARY
  AUC: 0.804
ABC1_LUNG
  AUC: 1.07
ACCMESO1_PLEURA
  AUC: 1.035
ACHN_KIDNEY
  AUC: 1.124
AGS_STOMACH
  AUC: 0.9408
AN3CA_ENDOMETRIUM
  AUC: 0.9198
ASPC1_PANCREAS
  AUC: 1.1544
BC3C_URINARY_TRACT
  AUC: 1.1182
BCPAP_THYROID
  AUC: 0.9965
BECKER_CENTRAL_NERVOUS_SYSTEM
  AUC: 0.8518
BEN_LUNG
  AUC: 1.124
BFTC905_URINARY_TRACT
  AUC: 0.8686
BFTC909_KIDNEY
  AUC: 0.9138
BHT101_THYROID
  AUC: 0.9801
BICR6_UPPER_AERODIGESTIVE_TRACT
  AUC: 0.8445
BICR16_UPPER_AERODIGESTIVE_TRACT
  AUC: 0.8236
BICR31_UPPER_AERODIGESTIVE_TRACT
  AUC: 0.8691
BICR56_UPPER_AERODIGESTIVE_TRACT
  AUC: 0.8298
BT474_BREAST
  AUC: 1.426
BT549_BREAST
  AUC: 0.9189
BXPC3_PANCREAS
  AUC: 1.188
CADOES1_BONE
  AUC: 1.097
CAKI1_KIDNEY
  AUC: 1.0035
CAL12T_LUNG
  AUC: 1.065
CAL27_UPPER_AERODIGESTIVE_TRACT
  AUC: 0.8579
CAL29_URINARY_TRACT
  AUC: 0.9717
CAL51_BREAST
  AUC: 0.9698
CAL54_KIDNEY
  AUC: 1.122
CAL62_THYROID
  AUC: 0.9897
CAL78_BONE
  AUC: 0.8669
CAL120_BREAST
  AUC: 0.8877
CALU1_LUNG
  AUC: 1.403
CALU6_LUNG
  AUC: 0.9933
CAMA1_BREAST
  AUC: 0.994
CAOV3_OVARY
  AUC: 1.046
CAPAN2_PANCREAS
  AUC: 1.09
CCFSTTG1_CENTRAL_NERVOUS_SYSTEM
  AUC: 0.9028
CFPAC1_PANCREAS
  AUC: 1.131
CHL1_SKIN
  AUC: 1.028
CJM_SKIN
  AUC: 0.9117
CL34_LARGE_INTESTINE
  AUC: 1.2091
COLO668_LUNG
  AUC: 0.9325
COLO679_SKIN
  AUC: 0.9271
COLO680N_OESOPHAGUS
  AUC: 0.903
COLO741_SKIN
  AUC: 1.181
COLO783_SKIN
  AUC: 0.896
COLO792_SKIN
  AUC: 1.217
COLO800_SKIN
  AUC: 0.9306
CORL23_LUNG
  AUC: 0.9099
CORL105_LUNG
  AUC: 0.9151
COV362_OVARY
  AUC: 0.9501
COV434_OVARY
  AUC: 0.6134
DANG_PANCREAS
  AUC: 1.103
DAOY_CENTRAL_NERVOUS_SYSTEM
  AUC: 0.9019
DBTRG05MG_CENTRAL_NERVOUS_SYSTEM
  AUC: 0.986
DETROIT562_UPPER_AERODIGESTIVE_TRACT
  AUC: 0.8984
DKMG_CENTRAL_NERVOUS_SYSTEM
  AUC: 1.055
DMS273_LUNG
  AUC: 0.9756
DU145_PROSTATE
  AUC: 0.9953
DV90_LUNG
  AUC: 0.6429
DepMap TP53 mutation annotation
  ∆ (AUC, TP53 mutation vs WT; decreased sensitivity): 0.0512
EBC1_LUNG
  AUC: 0.8513
ECGI10_OESOPHAGUS
  AUC: 1.105
EFM192A_BREAST
  AUC: 1.042
EFO21_OVARY
  AUC: 0.9443
EFO27_OVARY
  AUC: 0.9949
EN_ENDOMETRIUM
  AUC: 1.056
ES2_OVARY
  AUC: 1.069
ESS1_ENDOMETRIUM
  AUC: 0.9952
EWS502_BONE
  AUC: 1.4146
FADU_UPPER_AERODIGESTIVE_TRACT
  AUC: 1.156
FTC133_THYROID
  AUC: 0.8526
FTC238_THYROID
  AUC: 0.8658
G292CLONEA141B1_BONE
  AUC: 1.276
G361_SKIN
  AUC: 1.1047
G401_SOFT_TISSUE
  AUC: 0.6407
G402_SOFT_TISSUE
  AUC: 0.5799
GAMG_CENTRAL_NERVOUS_SYSTEM
  AUC: 1.102
GB1_CENTRAL_NERVOUS_SYSTEM
  AUC: 1.09
GCIY_STOMACH
  AUC: 1.0232
GCT_SOFT_TISSUE
  AUC: 1.012
GI1_CENTRAL_NERVOUS_SYSTEM
  AUC: 1.111
GMS10_CENTRAL_NERVOUS_SYSTEM
  AUC: 1.007
GOS3_CENTRAL_NERVOUS_SYSTEM
  AUC: 0.7415
GP2D_LARGE_INTESTINE
  AUC: 1.073
H4_CENTRAL_NERVOUS_SYSTEM
  AUC: 0.8128
HARA_LUNG
  AUC: 1.29
HCC15_LUNG
  AUC: 0.9559
HCC38_BREAST
  AUC: 1.2075
HCC44_LUNG
  AUC: 0.9515
HCC56_LARGE_INTESTINE
  AUC: 1.407
HCC78_LUNG
  AUC: 1.024
HCC95_LUNG
  AUC: 0.9165
HCC366_LUNG
  AUC: 0.9914
HCC827_LUNG
  AUC: 0.8612
HCC1143_BREAST
  AUC: 1.083
HCC1195_LUNG
  AUC: 0.8483
HCC1359_LUNG
  AUC: 1.123
HCC1419_BREAST
  AUC: 1.047
HCC1428_BREAST
  AUC: 0.8065
